Source: article PMC7854658, “Structural basis for ligand recognition of the neuropeptide Y Y2 receptor” (Nature Communications, 2021)
Like-named read-outs stand apart in the source and are kept apart here. Each block holds one molecule with its values, some of them ahead of it.

Experiments:
Y2R mutant Q130^3.32H = target: T1, Y2R mutant Q130^3.32H (Homo sapiens, UniProt P49146, Q130H); assay: NPY-induced IP accumulation (IP-One), mutant; format: cell-based; details: 1 μM antagonist
T1 construct: expressed in transfected cells; host or cells: HEK293
T1 sequence (P49146 whole entry Q130H): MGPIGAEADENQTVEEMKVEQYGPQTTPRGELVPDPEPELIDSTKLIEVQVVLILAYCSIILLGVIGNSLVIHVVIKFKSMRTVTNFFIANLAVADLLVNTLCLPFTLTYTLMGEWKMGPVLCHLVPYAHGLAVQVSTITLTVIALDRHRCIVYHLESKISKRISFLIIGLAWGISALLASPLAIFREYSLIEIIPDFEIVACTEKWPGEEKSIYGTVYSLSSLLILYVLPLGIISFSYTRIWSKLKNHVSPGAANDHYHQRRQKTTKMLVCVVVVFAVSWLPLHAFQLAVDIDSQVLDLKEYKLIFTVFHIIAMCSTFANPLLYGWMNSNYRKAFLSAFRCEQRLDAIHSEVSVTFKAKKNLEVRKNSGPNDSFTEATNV
Experimental: The plasmid hY2R_eYFP_pVitro2 encoding the WT Y2R and a fluorophore for investigating the receptor localization was used as template for the generation of receptor point mutations as previously described. Mutagenesis PCR was performed using the Phusion High-Fidelity Polymerase (Thermo Fisher Scientific, Waltham, MA, USA). […] The preparations of the plasmid DNA were performed using the Wizard plus Mini or Midi DNA purification kit (Promega, Madison, WI, USA).
(§1) To determine the contribution of residues to antagonist binding, IP-One accumulation assays (Cisbio, Codolet, France) were performed. HEK293 cells were seeded into six-well plates and transiently cotransfected with 3200 ng of receptor plasmid DNA and 800 ng of the chimeric G protein (Gα∆6qi4myr) to redirect the Gαi signaling pathway to the Gαq phospholipase C pathway. Transient transfection was carried out using Metafectene as transfection reagent according to the manufacturer’s protocol (Biontex, Munich, Germany) over night. The cells were then reseeded into white 384-well microplates (Greiner Bio-One, Kremsmünster, Austria) at a density of 15,000 cells per well and grown for additional 24 h.
All dilutions were performed in HBSS containing 20 mM LiCl (stimulation buffer) and DMSO with a final concentration of 0.01%.
To determine the amount of cellular IPs, the FRET acceptor (IP1-d2) and the FRET donor (anti-IP1-Cryptate) were reconstituted and diluted in lysis and detection buffer (1:20) as described in the manufacturer’s protocol. Three microliters of both solutions were added, and the cells were incubated on a tumbler for 60 min.

wild-type Y2R [1] = target: T2, wild-type Y2R (Homo sapiens, UniProt P49146); assay: Dose-dependent inhibition of NPY (0.3 nM)-induced IP accumulation; format: cell-based; details: read-out: pIC50 ± SEM, inhibition of NPY-induced IP accumulation (converted)
T2 construct: expressed in transfected cells; host or cells: HEK293
T2 sequence (P49146 1-381): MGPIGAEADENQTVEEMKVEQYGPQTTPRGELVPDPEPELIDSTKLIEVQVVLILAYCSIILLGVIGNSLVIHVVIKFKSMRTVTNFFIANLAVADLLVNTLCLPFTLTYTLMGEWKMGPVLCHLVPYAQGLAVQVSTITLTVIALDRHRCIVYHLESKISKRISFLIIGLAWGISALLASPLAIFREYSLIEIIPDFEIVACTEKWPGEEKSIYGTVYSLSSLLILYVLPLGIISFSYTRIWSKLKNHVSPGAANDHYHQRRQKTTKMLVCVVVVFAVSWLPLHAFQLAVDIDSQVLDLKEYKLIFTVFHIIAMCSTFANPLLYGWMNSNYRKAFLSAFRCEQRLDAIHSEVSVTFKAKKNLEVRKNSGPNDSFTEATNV
Experimental: To determine the contribution of residues to antagonist binding, IP-One accumulation assays (Cisbio, Codolet, France) were performed. […] The cells were then reseeded into white 384-well microplates (Greiner Bio-One, Kremsmünster, Austria) at a density of 15,000 cells per well and grown for additional 24 h. […] Three microliters of both solutions were added, and the cells were incubated on a tumbler for 60 min.

[2] = target: T3, Y2R crystallization construct without flavodoxin in ICL3 (construct_no flavodoxin) (Homo sapiens, UniProt P49146, H149Y/S280C); assay: as above; format: cell-based; details: read-out: pIC50 ± SEM, inhibition of NPY-induced IP accumulation (converted)
T3 construct: expressed in transfected cells; host or cells: HEK293
T3 sequence (P49146 1-353 H149Y/S280C): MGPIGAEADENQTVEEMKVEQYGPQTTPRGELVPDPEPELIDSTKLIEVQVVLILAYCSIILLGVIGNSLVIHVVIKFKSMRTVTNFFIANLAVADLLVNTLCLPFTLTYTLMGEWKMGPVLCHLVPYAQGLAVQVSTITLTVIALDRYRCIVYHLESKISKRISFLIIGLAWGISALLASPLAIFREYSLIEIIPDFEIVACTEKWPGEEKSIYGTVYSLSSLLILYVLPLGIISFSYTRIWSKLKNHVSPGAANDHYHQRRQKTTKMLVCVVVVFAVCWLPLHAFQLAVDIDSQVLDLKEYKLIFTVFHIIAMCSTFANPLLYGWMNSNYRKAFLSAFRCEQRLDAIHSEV
Experimental: as §1, with “([…])” for “(Gα∆6qi4myr)”, “manufacturer's” for “manufacturer’s”, “h. […] The cells were stimulated at 37 °C and 5% CO2 in humidified atmosphere for 90 min. The exact value of the effective concentration (ECx) at the day of the assay was determined by control curves in the absence of antagonist. To determine the amount of cellular IPs, the FRET acceptor (IP1-d2) and the FRET donor (anti-IP1-Cryptate) were reconstituted and diluted in lysis and detection buffer (1:20) as described in the manufacturer's protocol. Three microliters of both solutions were added, and the cells were incubated on a tumbler for 60 min.” for “h.”

[3] = target: T4, modified Y2R used for crystallization without N-terminal T4L (Construct_no T4L) (Homo sapiens, UniProt P49146, DEL251-256/H149Y/S280C); assay: NanoBRET-based binding assay (K18(TAMRA)-NPY); details: 300 nM K18(TAMRA)-NPY
T4 construct: eYFP (from the vector name) (C); expressed in transfected cells; host or cells: HEK293 (membrane preparations)
T4 sequence (P49146 with tags, fused parts or gaps H149Y/DEL251-256/S280C): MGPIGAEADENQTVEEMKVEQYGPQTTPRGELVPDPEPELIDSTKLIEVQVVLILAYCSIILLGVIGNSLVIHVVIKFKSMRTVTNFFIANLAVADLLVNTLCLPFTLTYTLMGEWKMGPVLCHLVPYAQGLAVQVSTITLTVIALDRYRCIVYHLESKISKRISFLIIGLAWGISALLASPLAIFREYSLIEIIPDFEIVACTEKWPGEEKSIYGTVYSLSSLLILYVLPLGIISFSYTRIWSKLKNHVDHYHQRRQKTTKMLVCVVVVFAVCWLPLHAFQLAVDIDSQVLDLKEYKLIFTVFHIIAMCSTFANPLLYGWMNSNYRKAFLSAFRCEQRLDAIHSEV
Experimental: (§2) For this purpose, a Nanoluciferase[44] (Promega, Madison, WO, USA) followed by a flexible […] terminus of the receptor in an Y2-eYFP_N1 vector[45]. The Nanoluciferase replaced the similarly sized N-terminal T4L fusion in the crystallization construct. To facilitate correct expression of this large N-terminal domain and export to the plasma membrane, a signal sequence of human interleukin 6 ([…]) was used[44]. HEK293 cells were transiently transfected with 8 μg of the corresponding vectors per T75 flask using MetafectenePro (Biontex) following the manufacturer's instructions. Twenty-four hours post transfection, the cells were harvested in PBS (-Ca^2+; -Mg^2+) and frozen (-80 °C). The membranes were prepared as described previously. Briefly, the cells were lysed in a hypotonic TRIS buffer (50 mM Tris-HCl, pH 7.5 and 50 μM Pefabloc SC) and homogenized using a manual dounce homogenizer for 15 times. Nuclei and cell debris was removed by centrifugation at 820 × g for 10 min (4 °C), and the microsomal membranes in the supernatant were collected by centrifugation at 20,000 × g for 60 min (4 °C). […] The total protein amount was determined by a Bradford assay. The membrane preparations were stored in aliquots at -80 °C. […] Directly before the measurement, 10 μl coelenterazine H in HBSS/HEPES was added to a final concentration of 4 μM. […] The BRET ratio was calculated by the ratio of F/L, and corrected by the background values. The IC50 values were determined using a three-parameter logistic fit in the GraphPad Prism 5 software (GraphPad Software, San Diego, CA, USA).

wild-type Y2R [4] = target: T2, wild-type Y2R; assay: NanoBRET-based binding assay (K18(TAMRA)-NPY); details: read-out: pIC50 ± SEM, NanoBRET binding (converted)
Experimental: as §2

NPY receptors = details: cited from earlier work
[5] = target: Y2R mutant Q130^3.32H (hY2R_eYFP_pVitro2) (human) (UniProt P49146)
[6] = target: Y2R mutant D292^6.59N (hY2R_eYFP_pVitro2) (human) (UniProt P49146)
[7] = target: Y2R mutant Y110^2.64A (hY2R_eYFP_pVitro2) (human) (UniProt P49146)
[8] = target: wild-type human Y2R with C-terminal eYFP (hY2R_eYFP_pVitro2) (human) (UniProt P49146)
Y2R = tested on: Y2R; design: method as in earlier work; details: ref Swanson, D.M. et al., Bioorg. Med. Chem. Lett. 21:5552-5556, 2011; read-out: Y2R affinity IC50; cited from earlier work

Antagonistic activity compared to WT (in words) (Y2R mutant Q130^3.32H): increased antagonistic activity | IC50 (wild-type Y2R [1]): 47.9 nM | IC50 [2]: 60.3 nM | IC50 ([3]; read-out: IC50, NanoBRET binding): 0.7 nM | IC50 ([3]; read-out: pIC50 ± SEM, NanoBRET binding (converted)): 0.676 nM | IC50 (wild-type Y2R [4]): 1.29 nM
Molecule: CCN(CC)C(=O)C(c1ccccc1)N1CCN(c2ccc(NC(=O)c3ccccc3-c3cccnc3)cc2F)CC1 (stereo not shown) [JNJ-31020028, N-(4-{4-[2-(diethylamino)-2-oxo-1-phenylethyl]piperazin-1-yl}-3-fluorophenyl)-2-pyridin-3-ylbenzamide]
Higher binding affinity to Y2R over the other NPY receptors (NPY receptors): over 100 fold

fold change of the EC50 of NPY-induced receptor signaling (IP accumulation) against the wild-type Y2R [5]: 132 fold | fold change of the EC50 of NPY in triggering Y2R signaling (IP accumulation) against the wild-type Y2R [6]: 233 fold | EC50 of NPY-induced IP accumulation (IP-One assay, HEK293 cells with chimeric G protein) [7]: 1.8 nM | EC50 of NPY-induced IP accumulation (IP-One assay, HEK293 cells with chimeric G protein) [8]: 0.06 nM
Molecule: neuropeptide Y (NPY) (from UniProt P01303 29-64)

Molecule: CCN(CC)C(=O)C(c1ccccc1)N1CCN(c2ccc(NC(=O)c3ccccc3-c3cccnc3)cc2F)CC1 (single isomer, unassigned) [R-isomer]
IC50 (Y2R): 9 ± 2 nM

Molecule: CCN(CC)C(=O)C(c1ccccc1)N1CCN(c2ccc(NC(=O)c3ccccc3-c3cccnc3)cc2F)CC1 (single isomer, unassigned) [S-isomer]
IC50 (Y2R): 14 ± 3 nM
